The values below come from PubChem BioAssay (NCI).

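The compound was tested at five concentrations on cells cultured in 96-well plates, with a 48-hour exposure period. TGI: concentration producing complete growth inhibition.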

What all share (experiment): growth of human tumour cells (NCI), 48 h
Assay [1] has as its system A549 NSCLC.
Assay [2] deals with CAKI-1 renal.
The subject of assay [3] is CCRF-CEM leukemia.
Assay [4] has as its system COLO 205 colon.
Assay [5] deals with HL-60(TB) leukemia.
For assay [6], the system named is HS 578T breast.
The subject of assay [7] is K-562 leukemia.
The test system of assay [8] is M14 melanoma.
For assay [9], the system named is MDA-N.
In assay [10] the test system is OVCAR-3 ovarian.
Assay [11] deals with PC-3 prostate.
The subject of assay [12] is SF-268 CNS.
Assay [13] concerns T-47D breast.

`CN1C(C)(C)CC(=O)C(Br)C1(C)C` (stereo not drawn): the TGI in [1], in assay [2], in assay [3], in [4], in assay [5] and in assay [6] was over 100 µM each time. In addition, the TGI in assay [7], in assay [8], in assay [9], in [10], in assay [11] and in assay [12] was over 100 µM throughout. In addition, the TGI in assay [13] was over 100 µM.
As for `C=C1CC(C)(COc2cc(=O)oc3ccccc23)OC1=O` (stereo not drawn), the TGI turned out to be 28.2 µM in assay [1]; 6.32 µM in assay [2]; 5.08 µM in assay [3]; 5.81 µM in assay [4]; 4.83 µM in assay [5]; 30.8 µM in assay [6]. For the same compound, the TGI in [7] was found to be 6.45 µM; in [8], 2.95 µM; in assay [9], 16.3 µM; in [10], 16.7 µM; in assay [11] it was 17.5 µM; in assay [12], 40.5 µM. This compound also registered a TGI in [13] of 13.8 µM.
As for `O=C1CCCCC1C(O)(C(F)(F)F)C(F)(F)Cl` (stereo not drawn), the TGI in assay [1], in assay [2], in assay [3], in assay [4], in assay [5] and in assay [6] was over 10 µM throughout. Moreover, the TGI in assay [7], in assay [8], in [9], in assay [10], in assay [11] and in [12] was over 10 µM throughout. The TGI in [13] was over 10 µM.
Take `COc1ccc2c(c1)-c1nc(=O)n(CCCN(C)C)c3ccc([N+](=O)[O-])c(c13)N2`: the TGI was 17 µM in assay [1]; 5.26 µM in [2]; 3.87 µM in assay [3]; 18.4 µM in [4]; 4.39 µM in [5]; 4.99 µM in assay [6]. Also, the TGI in [7] stood at 0.235 µM; in assay [8], 3.69 µM; in assay [9], 19.2 µM; in assay [10], 19.4 µM; in assay [11] it was 20.9 µM; in assay [12] it was 17.8 µM. This compound had a TGI in [13] of 32.2 µM.
Take `CCCCCCCCCCCCCCCC(=O)Nc1ccn(C2CCC(COP(=O)(O)OCC3OC(n4cc(F)c(=O)[nH]c4=O)CC3OC(C)=O)O2)c(=O)n1` (stereo not drawn): the TGI in [1] was over 54.2 µM; in assay [2] it was over 42.5 µM; in assay [3], 19.7 µM; in [4] it was 28.5 µM; in assay [5], 27.9 µM; in [6] it was over 100 µM. For the same compound, the TGI was over 38.2 µM in assay [7]; 28.1 µM in assay [8]; 50.4 µM in assay [9]; 59 µM in assay [10]; 56.8 µM in assay [11]; over 82.8 µM in assay [12]. In [13], this compound returned a TGI of over 66.5 µM.
Turning to `O=C(NCCc1ccccc1)c1cc(/C=C/c2cc(O)ccc2O)ccc1O`, the TGI in [1] is over 41.1 µM; in assay [2] it was 13.2 µM; in [3], over 40.3 µM; in [4], 17.6 µM; in assay [5], 9.65 µM; in assay [6], over 40.4 µM. Besides, the TGI in assay [7] stood at 7.49 µM; in [8], 15.9 µM; in assay [9], 9.81 µM; in assay [10], 8.11 µM; in assay [11], 11.4 µM; in [12], 10.2 µM. The compound further gave a TGI in assay [13] of 3.86 µM.
On to `O=C1/C(=C/c2ccc(Cl)cc2)N=C(c2ccccc2)N1/N=C/c1ccccc1O`, for which the TGI is 81.6 µM in assay [1]; 22.3 µM in assay [2]; 7.73 µM in assay [3]; over 100 µM in assay [4]; over 100 µM in assay [5]; 92.8 µM in assay [6]. Further, the TGI is 31 µM in assay [7]; 19.1 µM in assay [8]; over 100 µM in assay [9]; 36.3 µM in assay [10]; 28 µM in [11]; 47.1 µM in [12]. The compound also gave a TGI in assay [13] of 30.7 µM.
For `O=C1CCN2C(=N1)Sc1ccccc12`, the TGI in assay [1], in assay [2], in [3], in assay [4], in assay [5] and in assay [6] was over 100 µM each time. In addition, the TGI in assay [7], in [8], in assay [9], in assay [10], in [11] and in [12] was over 100 µM throughout. This compound yielded a TGI in assay [13] of over 100 µM.
In the case of `OCC1OC(n2cnc3c(SCc4ccccc4)ncnc32)C(O)C1O` (stereo not drawn), the TGI in assay [1] is over 100 µM; in assay [2], over 100 µM; in [3], 3.55 µM; in assay [4], over 94.9 µM; in assay [5], 8.52 µM; in [6] it was over 61.4 µM. Further, the TGI in assay [7], in [8], in assay [9], in assay [10], in assay [11] and in [12] was over 100 µM each time. In assay [13], this compound gave a TGI of over 100 µM.
On to `c1ccc(-c2cc(-c3ccncc3)cc(-c3ccncc3)n2)cc1`, for which the TGI in [1], in assay [2], in assay [3], in assay [4], in [5] and in [6] was over 100 µM in each case. Also, the TGI in [7], in assay [8], in assay [9], in assay [10], in assay [11] and in assay [12] was over 100 µM in each case. In assay [13], this compound returned a TGI of over 100 µM.
In the case of `CC(=O)O[C@H]1CC[C@@]2(C)C(=CC[C@@H]3[C@@H]2CC[C@](C)(c2nnc(C)o2)[C@H]3CC#N)C1`, the TGI in assay [1], in assay [2], in assay [3], in [4], in assay [5] and in [6] was over 100 µM in each case. Besides, the TGI in assay [7], in assay [8], in [9], in [10], in [11] and in assay [12] was over 100 µM each time. Besides, in assay [13], the TGI was over 100 µM.
